According to ChEMBL document CHEMBL3244299, “Allylic esters as potential antitumor agents. Derivatives and analogues of 2,3-bis(hydroxymethyl)-7-oxabicyclo[2.2.1]hept-2-ene” (J Med Chem, 1979):
Calls of active or inactive are those of the source. No cut-off for these calls is given here.

What was measured:
L1210 [1] = experiment: Cytotoxicity against mouse L1210 cells assessed as growth inhibition at 10^-4 M after 40 hrs relative to control; assay type: functional; conditions: L1210, 40 h, read-out: GI
L1210 [2] = experiment: Cytotoxicity against mouse L1210 cells assessed as growth inhibition at 10^-6 M after 40 hrs relative to control; assay type: functional; conditions: L1210, 40 h, read-out: GI
L1210 [3] = experiment: Cytotoxicity against mouse L1210 cells assessed as growth inhibition after 40 hrs; assay type: functional
L1210 [4] = experiment: Antitumor activity against mouse L1210 cells allografted in mouse; assay type: functional, cell-based
L1210 [5] = experiment: Cytotoxicity against mouse L1210 cells assessed as growth inhibition at 10^-5 M after 40 hrs relative to control; assay type: functional; conditions: L1210, 40 h, read-out: GI
P388 = experiment: Antitumor activity against mouse P388 cells allografted in mouse assessed as tumor growth inhibition at 25 mg/kg relative to control; assay type: functional
Mus musculus = organism: Mus musculus; experiment: Toxicity in mouse allografted with mouse P388 cells; assay type: organism-based

## CC(=O)OCC1=C(COC(C)=O)[C@@H]2O[C@H]1[C@H](OC(C)=O)[C@@H]2OC(C)=O
L1210 [1]
  inhibition of growth at 100 µM: 34%
L1210 [2]
  inhibition of growth at 1 µM: 1%
L1210 [3]
  ID50: >1 ×10⁻⁴ M
L1210 [4]
  Activity: inactive
L1210 [5]
  inhibition of growth at 10 µM: 19%

## COC(=O)C1=C(C(=O)OC)[C@H]2O[C@@H]1C(COC(C)=O)=C2COC(C)=O
L1210 [1]
  inhibition of growth at 100 µM: 93%
L1210 [2]
  inhibition of growth at 1 µM: 93%
L1210 [3]; Mus musculus, L1210, 40 h, read-out: ID50 (the source's name)
  IC50: < 1000 nM
L1210 [4]
  Activity: inactive
L1210 [5]
  inhibition of growth at 10 µM: 93%

## CCCCNC(=O)OCC1=C(COC(=O)NCCCC)[C@@H]2O[C@H]1C(C(=O)OC)=C2C(=O)OC
P388
  T/C: 123%

## CC(=O)OCC1=C(COC(C)=O)[C@@H]2O[C@H]1[C@H](O)[C@@H]2O
L1210 [1]
  inhibition of growth at 100 µM: 41%
L1210 [3]
  ID50: >1 ×10⁻⁴ M
L1210 [4]
  Activity: inactive
L1210 [5]
  inhibition of growth at 10 µM: 3%

## CNC(=O)OCC1=C(COC(=O)NC)[C@@H]2O[C@H]1C(C(=O)OC)=C2C(=O)OC
Mus musculus
  Activity: Toxic

## CCOC(=O)N1[C@@H]2O[C@@H](C(COC(C)=O)=C2COC(C)=O)N1C(=O)OCC
L1210 [1]
  inhibition of growth at 100 µM: 78%
L1210 [2]
  inhibition of growth at 1 µM: 13%
L1210 [3]
  ID50: 3 ×10⁻⁵ M
L1210 [4]
  Activity: inactive
L1210 [5]
  inhibition of growth at 10 µM: 41%
